By EC50 is commonly meant the midpoint of the concentration-response curve.

From ChEMBL document CHEMBL1143861, “Chemical modulators of heat shock protein 70 (Hsp70) by sequential, microwave-accelerated reactions on solid phase” (Bioorg Med Chem Lett, 2008) come the findings set out here.

Assay [1] is described as follows: Inhibition of bovine Hsp70 ATPase activity. Also noted: species or system Bos taurus.
The nature of assay [2]: Inhibition of Escherichia coli DnaK ATPase activity.
Assay [3] is described as follows: Activity against bovine Hsp70 ATPase activity. On the set-up: species or system Bos taurus.
A short description of assay [4]: Activity against Escherichia coli DnaK ATPase activity.
The nature of assay [5]: Activation of bovine Hsp70 ATPase activity. On the set-up: species or system Bos taurus.
In another assay the test system is Escherichia coli. Put plainly: (§1) Activation of Escherichia coli DnaK ATPase activity.
Assay [6] can be described thus: as §1.

Structures are written as SMILES. Active and inactive are the calls of the source. The rule behind the calls is not given here. Bounds are passed on as bounds.

With `CCOC(=O)C1=C(C)N(CCCC(=O)N[C@@H](CCCCN)CC(=O)N[C@@H](CCc2ccccc2)CC(=O)NCCC(=O)O)C(=O)NC1c1ccc(Br)cc1` (some centres undefined), the results for the EC50 in assay [1] and in assay [2] were 105 µM and 107 µM, respectively.

For the compound `CCOC(=O)C1=C(C)N(CCCC(=O)NCCC(=O)NCCC(=O)NCCC(=O)O)C(=O)NC1c1ccc(Br)cc1` (centres undefined), the 50% effective concentration (EC50) in assay [3] and in assay [4] was above 400 µM each time.

On to `CCOC(=O)C1=C(C)N(CCCC(=O)N[C@@H](CCCCN)CC(=O)NCCC(=O)O)C(=O)NC1c1ccc(Br)cc1` (some centres undefined), for which the EC50 in assay [3] and in assay [4] was above 400 µM throughout.

As for `CCOC(=O)C1=C(C)N(CCCC(=O)N[C@@H](CCc2ccccc2)CC(=O)N[C@@H](CCCCN)CC(=O)NCCC(=O)O)C(=O)NC1c1ccc(Br)cc1` (some centres undefined), the EC50 in assay [1] amounted to 265 µM; in assay [2], 325 µM.

In assay [5], `CCOC(=O)C1=C(C)N(CCCC(=O)N[C@@H](CCc2ccccc2)CC(=O)NCCC(=O)O)C(=O)NC1c1ccc(Br)cc1` (some centres undefined) gave an EC50 of 190 µM. Further, the result in the assay on Escherichia coli was inactive.

Turning to `CCOC(=O)C1=C(C)N(CCCC(=O)N[C@H](CC(=O)NCCC(=O)O)Cc2cccc3ccccc23)C(=O)NC1c1ccc(Br)cc1` (some centres undefined), the results for the concentration for a half-maximal effect (EC50) in assay [5] and in assay [6] were 179 µM and 190 µM, respectively.

`CCOC(=O)C1=C(C)N(CCCC(=O)N[C@H](CC(=O)N[C@H](CC(=O)NCCC(=O)O)CC(C)C)CC(C)C)C(=O)NC1c1ccc(Br)cc1` (some centres undefined): the EC50 in assay [3] and in assay [4] was above 400 µM in each case.

With `CCOC(=O)C1=C(C)N(CCCC(=O)O)C(=O)NC1c1ccc(Br)cc1` (centres undefined), the EC50 in assay [3] and in assay [4] was above 400 µM throughout.

Take `CCOC(=O)C1=C(C)N(CCCC(=O)N[C@H](CC(=O)NCCC(=O)O)c2ccccc2)C(=O)NC1c1ccc(Br)cc1` (some centres undefined): the EC50 in assay [3] and in assay [4] was above 400 µM throughout.

On to `CCOC(=O)C1=C(C)N(CCCC(=O)OC)C(=O)NC1c1ccc(Br)cc1` (centres undefined), for which the midpoint of the response in assay [5], the EC50, lay at 213 µM. The result with Escherichia coli was inactive.

As to `CCOC(=O)C1=C(C)N(CCCC(=O)N[C@H](CC(=O)NCCC(=O)O)CC(C)C)C(=O)NC1c1ccc(Br)cc1` (some centres undefined), the EC50 in assay [3] and in assay [4] was above 400 µM in each case.

`CCOC(=O)C1=C(C)N(CCCC(=O)N[C@H](CC(=O)N[C@H](CC(=O)NCCC(=O)O)Cc2cccc3ccccc23)C(C)C)C(=O)NC1c1ccc(Br)cc1` (some centres undefined) registered an EC50 in assay [5] of 255 µM. The result in the assay on Escherichia coli was inactive.

Consider `CCOC(=O)C1=C(C)N(CCCC(=O)N[C@@H](CCCCN)CC(=O)N[C@H](CC(=O)NCCC(=O)O)[C@@H](C)CC)C(=O)NC1c1ccc(Br)cc1` (some centres undefined), for which the EC50 in assay [5] is 352 µM. The outcome with Escherichia coli was inactive.

With `CCOC(=O)C1=C(C)N(CCCC(=O)N[C@H](CC(=O)NCCC(=O)O)C(C)C)C(=O)NC1c1ccc(Br)cc1` (some centres undefined), the EC50 in assay [3] and in assay [4] was above 400 µM each time.

With `CCOC(=O)C1=C(C)N(CCCC(=O)N[C@H](CC(=O)N[C@H](CC(=O)NCCC(=O)O)c2ccccc2)CC(C)C)C(=O)NC1c1ccc(Br)cc1` (some centres undefined), the EC50 in assay [3] and in assay [4] was above 400 µM throughout.

`CCOC(=O)C1=C(C)N(CCCC(=O)N[C@H](CC(=O)NCCC(=O)O)[C@@H](C)CC)C(=O)NC1c1ccc(Br)cc1` (some centres undefined): the half-maximal effective concentration (EC50) in assay [3] and in assay [4] was above 400 µM throughout.

With `CCOC(=O)C1=C(C)N(CCCC(=O)NCCC(=O)NCCC(=O)O)C(=O)NC1c1ccc(Br)cc1` (centres undefined), the half-maximal effective concentration (EC50) in assay [3] and in assay [4] was above 400 µM in each case.
